Reference: patent publication US20240245694A1, “Tricyclic Compounds and their Uses” (Novartis AG, priority 2022, published 2024)

Columns and labels:
[1] = tested on: SW48 colorectal xenografts; test: Efficacy against subcutaneous SW48 colorectal xenografts; type: in vivo, Crl:NU(NCr)-Foxn1nu nude mice; conditions: for % T/C / maximal regression: amorphous sodium salt; for anti-tumor effect / relapse while on treatment: p.o. qd; for anti-tumor effect: all dose levels of the study; for relapse while on treatment: time of relapse dose dependent
Protocol: (§1) Experiments were performed in female Crl:NU(NCr)-Foxn1^nu-homozygous nude mice (Charles River). Animals were housed under Optimized Hygienic Conditions in Allentown XJ cages (IVC, max. 6 mice per cage) with food and water at libitum and a 12 h:12 h light:dark cycle. Animals were allowed to acclimatize for at least 1 week before being enrolled in the experimental design. The study described here was performed according to license 1975 approved by the Basel Cantonal Veterinary Office.
Tumors were established by subcutaneous inoculation of human colorectal cancer SW48 cells (5×10^6 cells/animal in 100 μL in HBSS). SW48 human colorectal cancer cells were obtained from ATCC. The cells were cultured in RPMI-1640 medium (BioConcept Ltd., #1-41F01-1) supplemented with 10% FCS (Bio Concept #2-01F30-1), 2 mM L-glutamine (BioConcept Ltd., #5-10K50-H), 1 mM sodium pyruvate (Bio Concept #5-60F00-H) and 10 mM HEPES (Bio Concept #5-31F00-H) at 37° C. in an atmosphere of 5% CO2 in air. To establish SW48 xenografts cells were harvested and re-suspended in HBSS (Sigma, #H6648) before injecting subcutaneously 100 μL containing 5 million cells in the right flank of animals which were anaesthetized with isoflurane. Tumor size, in mm^3, was calculated following the formula: (L×W2×π/6); where W=width and L=length of the tumor. As a measure of efficacy the % T/C value is calculated at the end of the experiment according to:
Tumor regression was calculated according to: […]
Where Δtumor volumes represent the mean tumor volume on the evaluation day minus the mean tumor volume at the start of the experiment.
(§2) Amorphous sodium salt of test compound (corrected by salt factor) was dissolved in an aqueous 20% w/v solution of 2-hydroxypropyl-beta-cyclodextrin (HPBCD). A range of concentrations was prepared by serial dilution starting from the solution at highest concentration for the highest dose in the study.
(§3) Treatment was initiated about two weeks post tumor cell inoculation, when the xenografts had reached a mean volume of approximately 200 mm^3. The tumor bearing animals were randomized based on tumor volumes into experimental groups with 6 animals per group and treatment was initiated. Compounds were dosed orally (p.o.) once per day (qd) at 1, 3, 5 or 10 mg/kg (Example 18A) and at 0.1, 0.3, 1, 3 mg/kg (Example 21A). In addition, a control group treated once per day with vehicle (20% 2-hydroxypropyl-β-cyclodextrin) was included in each study. Tumor volumes and body weights were measured two times per week until the study termination.

[2] = Tolerability (body weight) in the SW48 xenograft study; type: in vivo, Crl:NU(NCr)-Foxn1nu nude mice
Protocol: as §1, §2, §3

[3] = tested on: SW48 cells; test: Proliferation assay SW48 (CellTiterGlo, 96 hours); type: cell-based; conditions: Homo sapiens
Outline: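 Cells in RPMI-1640/10% FCS were seeded overnight (SW48 2'000, DLD1-WRN-KO 1'500 cells/well), then exposed to eight 3-fold compound dilutions at 0.1% DMSO. ATP luminescence relative to a day-0 plate gives % growth (0% stasis, −100% complete kill). GI50 is the geometric mean of ≥2 independent replicates.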

Structure (SMILES) | % T/C ([1]; 1 mg/kg p.o. qd, day 32 of the study (fourteenth day of treatment)) [%] | maximal regression ([1]; 3 mg/kg p.o. qd, day 49 of the study (thirty first day of treatment)) [%] | maximal regression ([1]; 5 mg/kg p.o. qd, day 49 (thirty first day of treatment)) [%] | maximal regression ([1]; 10 mg/kg p.o. qd, day 63 (forty fifth day of treatment)) [%] | anti-tumor effect [1] | relapse while on treatment [1] | body weight gain, of the body weight at start ([2]; 1, 3, 5 or 10 mg/kg p.o. qd, after the initial body weight loss) | initial body weight loss among individual animals ([2]; 1, 3, 5 or 10 mg/kg p.o. qd, first ten days of treatment) [%] | GI50 [3] [nM] | % T/C ([1]; 0.1 mg/kg p.o. qd, day 25 throughout 29th day of the study (tenth to fourteenth day of treatment)) [%] | % T/C ([1]; 0.3 mg/kg p.o. qd, day 29 of the study (fourteenth day of treatment), initial stasis followed by regrowth) [%] | maximal regression ([1]; 1 mg/kg p.o. qd, day 52 of the study (thirty seventh day of treatment)) [%] | maximal regression ([1]; 3 mg/kg p.o. qd, day 85 (seventieth day of the treatment)) [%] | tolerability ([2]; 0.1, 0.3, 1, 3 mg/kg p.o. qd, throughout the study) | body weight loss among individual animals on individual occasions ([2]; 0.1, 0.3, 1, 3 mg/kg p.o. qd, not dose-dependent) [%]
Cc1ncnc(C(=O)N2CCN(c3c4n(c5nc(C6=CCOCC6)nn5c3=O)[C@@H](C(=O)Nc3ccc(C(F)(F)F)cc3Cl)C[C@H]4C)C[C@H]2C)c1O [Example 18A, (7R,9R)—N-(2-chloro-4-(trifluoromethyl)phenyl)-2-(3,6-dihydro-2H-pyran-4-yl)-6-((R)-4-(5-hydroxy-6-methylpyrimidine-4-carbonyl)-3-methylpiperazin-1-yl)-7-methyl-5-oxo-5,7,8,9-tetrahydropyrrolo[1,2-c][1,2,4]triazolo[1,5-a]pyrimidine-9-carboxamide] | 22 | 71 | 83 | 91 | Dose dependent anti-tumor effect was observed | Relapse was observed for all treatment groups | up to 18% | ≤ 14 | 40 | – | – | – | – | – | –
Cc1ncnc(C(=O)N2CCN(c3c4n(c5nc(C6=CCOCC6)nn5c3=O)[C@@H](C(=O)Nc3ccc(C(F)(F)F)cc3Cl)C[C@H]4C)[C@H]3CC[C@@H]32)c1O [Example 21A, (7R,9R)—N-(2-chloro-4-(trifluoromethyl)phenyl)-2-(3,6-dihydro-2H-pyran-4-yl)-6-((1S,6S)-5-(5-hydroxy-6-methylpyrimidine-4-carbonyl)-2,5-diazabicyclo[4.2.0]octan-2-yl)-7-methyl-5-oxo-5,7,8,9-tetrahydropyrrolo[1,2-c][1,2,4]triazolo[1,5-a]pyrimidine-9-carboxamide] | – | – | – | – | Dose dependent anti-tumor effect was observed | no relapse was observed in three animals treated at 1 mg/kg and in entire group treated at 3 mg/kg | – | – | 6 | 50 | 0 | 75 | 99 | well tolerated | ≤ 15
